Where “and” joins values, the source holds several entries; their conditions need not be identical. Equal values may be shown once.
How the values were obtained:
HepaRG cells [1] = assay: PA and PANO content in cell culture medium of HepaRG cells upon pharmacological transporter inhibition (LC-MS/MS); format: in vitro ADME, human
Protocol: In the case of TEA, cells were pre-incubated 24 h prior to PA treatment. The inhibitors were applied anew at PA incubation.
In order to measure time-dependent depletion of PA and PANO content in cell culture medium, cells were seeded at a density of 0.2 × 10^6 cells per well in a 6-well plate and cultivated as described in Section 4.2. After four weeks of cultivation, cells were adapted to serum-free medium and medium substituted with insulin, transferrin, selenium (ITS) serum extender (Capricorn Scientific, Ebsdorfergrund, Germany) 48 h prior to PA incubation for optimal LC-MS/MS measurements. […] Samples were taken after 2 h, 4 h, 8 h and 24 h.
Briefly, chromatographic separation of PA/PANO analytes was achieved on a 50 × 2.1 mm Kinetex ™ 2.6 μm CoreShell EVO C18 100 Å column protected by a SecurityGuard ™ ULTRA EVO C 18 2.1 mm guard column (both Phenomenex, Aschaffenburg, Germany) at a flow rate of 0.4 mL/min on a Shimadzu high performance liquid chromatography (HPLC) apparatus (LC-20AB, SIL-20AC HT, CTO-20AC, CBM-20A, Duisburg, Germany) coupled to an API4000 triple quadrupole MS (Sciex, Darmstadt, Germany). The following MS parameters were used for measurements in positive electrospray ionisation (ESI+) mode: ionisation voltage 2500 V, nebuliser gas 50 psi, heating gas 50 psi, curtain gas 30 psi, temperature 600 °C, collision gas level 7. The substance specific parameters are summarized in Kaltner et al. 2019 [79].

SLC22A1 = molecular target: T1, SLC22A1 (Homo sapiens, UniProt O15245); assay: ASP+ (SLC22A1 substrate) uptake measurement in HepaRG cells; format: cell-based
T1 construct: For measuring the uptake of ASP^+ in HepaRG cells incubated with PAs; endogenous in cells; host or cells: differentiated HepaRG cells (human hepatoma)
T1 sequence (O15245 1-554): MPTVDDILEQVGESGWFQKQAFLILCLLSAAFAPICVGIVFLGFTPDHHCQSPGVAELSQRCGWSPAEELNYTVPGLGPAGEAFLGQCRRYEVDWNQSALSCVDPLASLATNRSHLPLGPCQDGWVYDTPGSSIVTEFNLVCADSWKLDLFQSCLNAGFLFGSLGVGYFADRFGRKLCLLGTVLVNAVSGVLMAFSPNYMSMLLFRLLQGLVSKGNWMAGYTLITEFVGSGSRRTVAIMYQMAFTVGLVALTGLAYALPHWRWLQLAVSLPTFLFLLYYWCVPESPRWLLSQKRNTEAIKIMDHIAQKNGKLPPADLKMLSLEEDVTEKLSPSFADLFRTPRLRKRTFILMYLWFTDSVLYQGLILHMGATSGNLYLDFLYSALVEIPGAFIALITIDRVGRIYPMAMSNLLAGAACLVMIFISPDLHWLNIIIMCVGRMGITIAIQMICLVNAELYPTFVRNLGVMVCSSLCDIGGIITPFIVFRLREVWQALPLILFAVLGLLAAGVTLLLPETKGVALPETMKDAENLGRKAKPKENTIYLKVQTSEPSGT
Protocol: ASP^+ is an organic cationic mitochondrial dye that only fluoresces inside cells so that fluorescence measured in the cell culture medium can be neglected. […] In parallel, cells were incubated with Qu (100 µM) and TEA (3 mM) as mentioned in Section 4.3. After 24 h, cells were incubated with 1 µM ASP^+ in Hanks’ balanced salt solution (HBSS, Sigma-Aldrich, Taufkirchen, Germany) at 37 °C. Fluorescence was measured after 20 min at ASP^+-specific wavelength (λex = 475 nm and λem = 605 nm) on a TecanM200Pro spectrometer (Tecan Group Ltd., Männedorf, Switzerland) according to Ahlin et al., (2008).

HepaRG cells [2] = assay: PA and PANO content in cell culture medium of HepaRG cells upon pharmacological transporter inhibition (LC-MS/MS); format: in vitro ADME, human; remark: listed apart in the source

C/C=C1/C[C@@H](C)[C@@](C)(O)C(=O)OCC2=CCN3CC[C@@H](OC1=O)[C@@H]23 [Senecionine, senecionine]
PA content in medium, single replicates (HepaRG cells [1]; 8h, no inhibitor, repl. 1-5): 8.726% | PA content in medium, single replicates (HepaRG cells [1]; 8h, plus Ko143, repl. 1-3): 4.478% and 4.105% | PA in medium, Mean [%] (HepaRG cells [1]; no inhibitor, 0h): 100% | PA in medium, Mean [%] (HepaRG cells [1]; no inhibitor, 4h): 25.6172% | PA in medium, single replicates (repl.) (HepaRG cells [1]; no inhibitor, 4h): 20.2703% and 36.4212% and 41.9726% and 18.235% and 11.1867% | PA in medium, Mean [%] (HepaRG cells [1]; no inhibitor, 8h): 8.337% | PA in medium, single replicates (repl.) (HepaRG cells [1]; no inhibitor, 8h): 5.95% and 13.0309% and 15.415% and 3.983% and 3.308% | PA in medium, Mean [%] (HepaRG cells [1]; no inhibitor, 24h): 0.1453% | PA in medium, single replicates (repl.) (HepaRG cells [1]; no inhibitor, 24h): 0% (3×) and 0.3901% and 0.3363% | PA in medium, Mean [%] (HepaRG cells [1]; plus CsA, 0h): 100% | PA in medium, single replicates (repl.) (HepaRG cells [1]; plus CsA, 0h): 100% | PA in medium, Mean [%] (HepaRG cells [1]; plus CsA, 4h): 83.5787% | PA in medium, single replicates (repl.) (HepaRG cells [1]; plus CsA, 4h): 100.41% and 74.0814% | PA in medium, Mean [%] (HepaRG cells [1]; plus CsA, 8h): 79.3329% | PA in medium, single replicates (repl.) (HepaRG cells [1]; plus CsA, 8h): 78.1367% and 71.9298% | PA in medium, Mean [%] (HepaRG cells [1]; plus CsA, 24h): 63.0445% | PA in medium, single replicates (repl.) (HepaRG cells [1]; plus CsA, 24h): 81.6295% and 67.7648% and 39.7392% | PA in medium, Mean [%] (HepaRG cells [1]; plus Ko143, 0h): 100% | PA in medium, single replicates (repl.) (HepaRG cells [1]; plus Ko143, 0h): 100% | PA in medium, Mean [%] (HepaRG cells [1]; plus Ko143, 4h): 27.3505% | PA in medium, single replicates (repl.) (HepaRG cells [1]; plus Ko143, 4h): 21.9905% and 15.6142% and 44.4468% | PA in medium, Mean [%] (HepaRG cells [1]; plus Ko143, 8h): 9.179% | PA in medium, single replicates (repl.) (HepaRG cells [1]; plus Ko143, 8h): 5.449% and 3.069% and 19.0198% | PA in medium, Mean [%] (HepaRG cells [1]; plus Ko143, 24h): 0.2576% | PA in medium, single replicates (repl.) (HepaRG cells [1]; plus Ko143, 24h): 0% (2×) and 0.7727% | PA in medium, Mean [%] (HepaRG cells [1]; plus MK-571, 0h): 100% | PA in medium, Mean [%] (HepaRG cells [1]; plus MK-571, 4h): 87.0627% | PA in medium, single replicates (repl.) (HepaRG cells [1]; plus MK-571, 4h): 81.9366% and 96.8826% and 82.369% | PA in medium, Mean [%] (HepaRG cells [1]; plus MK-571, 8h): 64.688% | PA in medium, single replicates (repl.) (HepaRG cells [1]; plus MK-571, 8h): 76.7573% and 68.0778% and 49.229% | PA in medium, Mean [%] (HepaRG cells [1]; plus MK-571, 24h): 22.3298% | PA in medium, single replicates (repl.) (HepaRG cells [1]; plus MK-571, 24h): 51.6203% and 9.723% and 5.646% | PA in medium, Mean [%] (HepaRG cells [1]; plus Qu, 0h): 100% | PA in medium, single replicates (repl.) (HepaRG cells [1]; plus Qu, 0h): 100% | PA in medium, single replicates (repl.) (HepaRG cells [1]; plus Qu, 4h): 89.6889% and 96.62% | PA in medium, single replicates (repl.) (HepaRG cells [1]; plus Qu, 8h): 89.9877% and 75.5125% and 84.2% | PA in medium, single replicates (repl.) (HepaRG cells [1]; plus Qu, 24h): 67.9609% and 61.3936% and 73.11% | PA in medium, Mean [%] (HepaRG cells [1]; plus TEA, 0h): 100% | PA in medium, single replicates (repl.) (HepaRG cells [1]; plus TEA, 0h): 100% | PA in medium, Mean [%] (HepaRG cells [1]; plus TEA, 4h): 61.4268% | PA in medium, single replicates (repl.) (HepaRG cells [1]; plus TEA, 4h): 53.1634% and 46.1792% and 84.938% | PA in medium, Mean [%] (HepaRG cells [1]; plus TEA, 8h): 43.7039% | PA in medium, single replicates (repl.) (HepaRG cells [1]; plus TEA, 8h): 34.8001% and 27.837% | PA in medium, Mean [%] (HepaRG cells [1]; plus TEA, 24h): 19.1005% | PA in medium, single replicates (repl.) (HepaRG cells [1]; plus TEA, 24h): 7.953% and 7.514% and 41.8346% | fluorescence [%], MW [%] (SLC22A1; 1 µM, solv ctrl = 100): 90.9095% | fluorescence [%], MW [%] (SLC22A1; 10 µM, solv ctrl = 100): 39.1097% | fluorescence [%], MW [%] (SLC22A1; 50 µM, solv ctrl = 100): 27.2215% | fluorescence [%], MW [%] (SLC22A1; 100 µM, solv ctrl = 100): 21.3927% | fluorescence [%], MW [%] (SLC22A1; 250 µM, solv ctrl = 100): 20.0876% | interaction with SLC22A1 (SLC22A1; HepaRG): both inhibitors and substrates | minimum concentration inhibiting uptake of the SLC22A1-specific substrate ASP+ (SLC22A1; HepaRG, 24 h): 10 µM | remaining activity at 1 µM (SLC22A1; HepaRG, 24 h, 1 µM, solv ctrl = 100, read-out: fluorescence [%], single replicates (repl.)): 82% | PA in medium, single replicates (repl.) (HepaRG cells [2]; no inhibitor, 0h): 100% | PA in medium, single replicates (repl.) (HepaRG cells [2]; plus MK-571, 0h): 100%
